# From PubChem BioAssay (NCI)
#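 A five-concentration, 48-hour dose response in 96-well plates underlies each endpoint, interpolated linearly between surrounding concentrations. GI50 = concentration required for 50% inhibition of growth. TGI: total growth inhibition.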
# Assays:
# Assay in all cases: growth of human tumour cells (NCI), 48 h
# 786-0 renal = system: 786-0 renal
# A498 renal = system: A498 renal
# A549 NSCLC = system: A549 NSCLC
# ACHN renal = system: ACHN renal
# BT-549 breast = system: BT-549 breast
# CAKI-1 renal = system: CAKI-1 renal
# CCRF-CEM leukemia = system: CCRF-CEM leukemia
# COLO 205 colon = system: COLO 205 colon
# DU-145 prostate = system: DU-145 prostate
# EKVX NSCLC = system: EKVX NSCLC
# HCC-2998 colon = system: HCC-2998 colon
# HCT-116 colon = system: HCT-116 colon
# HCT-15 colon = system: HCT-15 colon
# HL-60(TB) leukemia = system: HL-60(TB) leukemia
# HOP-62 NSCLC = system: HOP-62 NSCLC
# HOP-92 NSCLC = system: HOP-92 NSCLC
# HS 578T breast = system: HS 578T breast
# HT29 colon = system: HT29 colon
# IGROV1 ovarian = system: IGROV1 ovarian
# K-562 leukemia = system: K-562 leukemia
# KM12 colon = system: KM12 colon
# LOX IMVI melanoma = system: LOX IMVI melanoma
# M14 melanoma = system: M14 melanoma
# MALME-3M melanoma = system: MALME-3M melanoma
# MCF7 breast = system: MCF7 breast
# MDA-MB-435 = system: MDA-MB-435
# MDA-MB-468 breast = system: MDA-MB-468 breast
# MOLT-4 leukemia = system: MOLT-4 leukemia
# NCI-H226 lung = system: NCI-H226 lung
# NCI-H23 lung = system: NCI-H23 lung
# NCI-H460 lung = system: NCI-H460 lung
# NCI-H522 lung = system: NCI-H522 lung
# NCI/ADR-RES ovarian = system: NCI/ADR-RES ovarian
# OVCAR-3 ovarian = system: OVCAR-3 ovarian
# OVCAR-4 ovarian = system: OVCAR-4 ovarian
# OVCAR-5 ovarian = system: OVCAR-5 ovarian
# OVCAR-8 ovarian = system: OVCAR-8 ovarian
# PC-3 prostate = system: PC-3 prostate
# RPMI-8226 leukemia = system: RPMI-8226 leukemia
# RXF 393 renal = system: RXF 393 renal
# SF-268 CNS = system: SF-268 CNS
# SF-295 CNS = system: SF-295 CNS
# SF-539 CNS = system: SF-539 CNS
# SK-MEL-2 melanoma = system: SK-MEL-2 melanoma
# SK-MEL-28 melanoma = system: SK-MEL-28 melanoma
# SK-MEL-5 melanoma = system: SK-MEL-5 melanoma
# SK-OV-3 ovarian = system: SK-OV-3 ovarian
# SN12C renal = system: SN12C renal
# SNB-19 CNS = system: SNB-19 CNS
# SNB-75 CNS = system: SNB-75 CNS
# SW-620 colon = system: SW-620 colon
# T-47D breast = system: T-47D breast
# TK-10 renal = system: TK-10 renal
# U251 CNS = system: U251 CNS
# UACC-257 melanoma = system: UACC-257 melanoma
# UACC-62 melanoma = system: UACC-62 melanoma
structure (smiles),measurement,setting,value
O=C(c1ccccc1)n1ccc(-c2cc3cc(Br)ccc3oc2=O)n1,GI50,786-0 renal,3.99 µM
same,TGI,786-0 renal,> 100 µM
same,GI50,A498 renal,> 100 µM
same,TGI,A498 renal,> 100 µM
same,GI50,A549 NSCLC,12.6 µM
same,TGI,A549 NSCLC,> 100 µM
same,GI50,ACHN renal,3.94 µM
same,TGI,ACHN renal,> 100 µM
same,GI50,BT-549 breast,5.18 µM
same,TGI,BT-549 breast,78 µM
same,GI50,CAKI-1 renal,4.16 µM
same,TGI,CAKI-1 renal,> 100 µM
same,GI50,CCRF-CEM leukemia,1.52 µM
same,TGI,CCRF-CEM leukemia,15.6 µM
same,GI50,COLO 205 colon,19.1 µM
same,TGI,COLO 205 colon,73.6 µM
same,GI50,DU-145 prostate,8.9 µM
same,TGI,DU-145 prostate,> 100 µM
same,GI50,EKVX NSCLC,2.7 µM
same,TGI,EKVX NSCLC,> 100 µM
same,GI50,HCC-2998 colon,5.29 µM
same,TGI,HCC-2998 colon,> 100 µM
same,GI50,HCT-116 colon,3.52 µM
same,TGI,HCT-116 colon,> 100 µM
same,GI50,HCT-15 colon,2.88 µM
same,TGI,HCT-15 colon,> 100 µM
same,GI50,HL-60(TB) leukemia,2.09 µM
same,TGI,HL-60(TB) leukemia,5.49 µM
same,GI50,HOP-62 NSCLC,3.48 µM
same,TGI,HOP-62 NSCLC,> 100 µM
same,GI50,HOP-92 NSCLC,0.545 µM
same,TGI,HOP-92 NSCLC,> 100 µM
same,GI50,HS 578T breast,17.5 µM
same,TGI,HS 578T breast,> 100 µM
same,GI50,HT29 colon,16.5 µM
same,TGI,HT29 colon,> 100 µM
same,GI50,IGROV1 ovarian,5.48 µM
same,TGI,IGROV1 ovarian,> 100 µM
same,GI50,K-562 leukemia,3.59 µM
same,TGI,K-562 leukemia,> 100 µM
same,GI50,KM12 colon,4.45 µM
same,TGI,KM12 colon,> 100 µM
same,GI50,LOX IMVI melanoma,2.8 µM
same,TGI,LOX IMVI melanoma,90.9 µM
same,GI50,M14 melanoma,3.94 µM
same,TGI,M14 melanoma,24 µM
same,GI50,MALME-3M melanoma,5.9 µM
same,TGI,MALME-3M melanoma,> 100 µM
same,GI50,MCF7 breast,2.74 µM
same,TGI,MCF7 breast,> 100 µM
same,GI50,MDA-MB-435,14.7 µM
same,TGI,MDA-MB-435,> 100 µM
same,GI50,MDA-MB-468 breast,3.6 µM
same,TGI,MDA-MB-468 breast,25.2 µM
same,GI50,MOLT-4 leukemia,3.32 µM
same,TGI,MOLT-4 leukemia,9.55 µM
same,GI50,NCI-H226 lung,7.23 µM
same,TGI,NCI-H226 lung,62.1 µM
same,GI50,NCI-H23 lung,5.87 µM
same,TGI,NCI-H23 lung,> 100 µM
same,GI50,NCI-H460 lung,3.78 µM
same,TGI,NCI-H460 lung,> 100 µM
same,GI50,NCI-H522 lung,3.36 µM
same,TGI,NCI-H522 lung,17 µM
same,GI50,NCI/ADR-RES ovarian,4.13 µM
same,TGI,NCI/ADR-RES ovarian,81.3 µM
same,GI50,OVCAR-3 ovarian,2.06 µM
same,TGI,OVCAR-3 ovarian,> 100 µM
same,GI50,OVCAR-4 ovarian,4.56 µM
same,TGI,OVCAR-4 ovarian,> 100 µM
same,GI50,OVCAR-5 ovarian,13.9 µM
same,TGI,OVCAR-5 ovarian,> 100 µM
same,GI50,OVCAR-8 ovarian,2.73 µM
same,TGI,OVCAR-8 ovarian,51.6 µM
same,GI50,PC-3 prostate,4.05 µM
same,TGI,PC-3 prostate,> 100 µM
same,GI50,RPMI-8226 leukemia,3.8 µM
same,TGI,RPMI-8226 leukemia,> 100 µM
same,GI50,RXF 393 renal,6.18 µM
same,TGI,RXF 393 renal,> 100 µM
same,GI50,SF-268 CNS,4.29 µM
same,TGI,SF-268 CNS,> 100 µM
same,GI50,SF-295 CNS,8.91 µM
same,TGI,SF-295 CNS,> 100 µM
same,GI50,SF-539 CNS,7.44 µM
same,TGI,SF-539 CNS,67.3 µM
same,GI50,SK-MEL-2 melanoma,5.6 µM
same,TGI,SK-MEL-2 melanoma,74.7 µM
same,GI50,SK-MEL-28 melanoma,6.05 µM
same,TGI,SK-MEL-28 melanoma,> 100 µM
same,GI50,SK-MEL-5 melanoma,4.14 µM
same,TGI,SK-MEL-5 melanoma,23.6 µM
same,GI50,SK-OV-3 ovarian,6.08 µM
same,TGI,SK-OV-3 ovarian,62.5 µM
same,GI50,SN12C renal,6.28 µM
same,TGI,SN12C renal,> 100 µM
same,GI50,SNB-19 CNS,9.97 µM
same,TGI,SNB-19 CNS,> 100 µM
same,GI50,SNB-75 CNS,7.09 µM
same,TGI,SNB-75 CNS,> 100 µM
same,GI50,SW-620 colon,5.15 µM
same,TGI,SW-620 colon,> 100 µM
same,GI50,T-47D breast,6.22 µM
same,TGI,T-47D breast,70.9 µM
same,GI50,TK-10 renal,47.5 µM
same,TGI,TK-10 renal,> 100 µM
same,GI50,U251 CNS,4.82 µM
same,TGI,U251 CNS,> 100 µM
same,GI50,UACC-257 melanoma,4 µM
same,TGI,UACC-257 melanoma,30.2 µM
same,GI50,UACC-62 melanoma,3.55 µM
same,TGI,UACC-62 melanoma,22.9 µM
